Data as given in ChEMBL document CHEMBL1136361, “5-amino-1-(2,6-dichloro-4-trifluoromethyl-phenyl)-3-[3H3]-methylsulfanyl-1H-pyrazole-4-carbonitrile (CTOM): synthesis and characterization of a novel and selective insect GABA receptor radioligand” (Bioorg Med Chem Lett, 2003).

How the values were obtained:
[1] = In vitro binding affinity against GABA receptor in mouse brain; assay type: tissue-based
[2] = In vitro binding affinity against GABA receptor in house fly; set-up: species or system Musca domestica
[3] = Mortality percent was determined in flea; range is 50-100%; assay type: ADME; conditions: pulicinae

`CSc1nn(-c2c(Cl)cc(C(F)(F)F)cc2Cl)c(N)c1C#N` gave a Ki [1] of 4 nM and a Ki [2] of 8 nM.

In the case of `N#Cc1nn(-c2c(Cl)cc(C(F)(F)F)cc2Cl)c(N)c1[S+]([O-])C(F)(F)F` (stereo not drawn) [FIPRONIL], the Mortality [3] is reported as 50%.
